Results from EP1925314A1, “Pharmaceutical composition with synergistic anticonvulsant effect” (SCHWARZ PHARMA AG, priority 2006, dated 2008).
Read-outs that look alike come from different tables or passages of the source.

How the values were obtained:
[1] = tested on: 6 Hz-induced seizures; assay: 6 Hz seizure test in mice, with isobolographic analysis of drug combinations; details: for anticonvulsant effects against 6 Hz seizure: i.p., mice
[2] = tested on: epileptic seizures; assay: ED50 of the individual compounds, seizure model not given (various models of the rat and the mouse); format: in vivo; details: ip
Protocol: The skilled person may determine the ED50 values by methods known in the art. It is preferred that the ED50 values are determined by preclinical or/and clinical trials. Published ED50 values may also be used. […] Tables 5 and 6 disclose specific ED50 values obtained in various models of the rat and the mouse. A person skilled in the art knows that in a particular model, among different species, ED50 values show a variation by a factor of up to 5 or even larger.

[3] = tested on: refractory self-sustaining status epilepticus; details: in vivo; cited from earlier work
[4] = tested on: 6 Hz psychomotor seizures; details: determined in the anticonvulsant drug screening program of NINDS; cited from earlier work
[5] = tested on: cobalt-homocysteine-induced status epilepticus; details: Bialer et al., 2001, 2002; cited from earlier work
[6] = Clinical population pharmacokinetic analysis
[7] = tested on: lithium-pilocarpine-induced status epilepticus; details: Bialer et al., 2001, 2002; cited from earlier work
[8] = tested on: pattern of neuronal activation; details: Duncan and Kohn (2004); cited from earlier work
[9] = tested on: mouse cortical neurons; details: mouse cortical neurons (Bialer et al., 2002); cited from earlier work
[10] = tested on: drug metabolizing enzymes; assay: Inhibition, induction and metabolism by drug metabolizing enzymes; details: a large variety of enzymes
[11] = tested on: 6 Hz-induced seizures; details: literature observation (Gower et al., 1993; Klitgaard et al., 1998); cited from earlier work
[12] = approximate value, model not stated, read-out: ED50

## NC(=O)N1c2ccccc2C=Cc2ccccc21 [CBZ, carbamazepine]
[1]; drugs administered alone
  anticonvulsant effects against 6 Hz seizure: dose-dependent anticonvulsant effects
[2]; [12]
  ED50: ~50 mg/kg

## NCC1(CC(=O)O)CCCCC1 [GBP, gabapentin]
[1]; drugs administered alone
  anticonvulsant effects against 6 Hz seizure: dose-dependent anticonvulsant effects
[2]
  ED50: ~220 mg/kg

## COC[C@@H](NC(C)=O)C(=O)NCc1ccccc1 [LCM, R-2-acetamido-N-benzyl-3-methoxypropionamide]
[3]
  activity against refractory self-sustaining status epilepticus: active
[1]; Mus musculus, ip, 0.5 h
  ED50: 10.1 mg/kg
[1]; drugs administered alone
  anticonvulsant effects against 6 Hz seizure: dose-dependent anticonvulsant effects
[1]; drugs administered alone, lowest ED50
  potency compared to the other tested AEDs: highest potency
[4]
  ED50: 9.9 mg/kg
[5]
  efficacy against cobalt-homocysteine-induced status epilepticus: effective
[6]
  effect of LCM on plasma levels of AEDs or vice versa: no evidence for any effect
[7]
  efficacy against lithium-pilocarpine-induced status epilepticus: effective
[8]
  specific pattern of neuronal activation: attenuated
[9]
  GABA currents: increased
  glutamate transmission: inhibited glutamate transmission indirectly
[10]
  inhibition or induction of drug metabolizing enzymes: does not inhibit or induce
[2]
  ED50: ~10 mg/kg

## CC[C@@H](C(N)=O)N1CCCC1=O [LEV, levetiracetam]
[11]
  protection in the 6Hz test: complete protection
[1]; drugs administered alone
  anticonvulsant effects against 6 Hz seizure: dose-dependent anticonvulsant effects
[2]
  ED50: ~20 mg/kg

## Nc1nnc(-c2cccc(Cl)c2Cl)c(N)n1 [LTG, lamotrigine]
[1]; drugs administered alone
  anticonvulsant effects against 6 Hz seizure: dose-dependent anticonvulsant effects
[2]
  ED50: ~85 mg/kg

## O=C1NC(=O)C(c2ccccc2)(c2ccccc2)N1 [PHT, phenytoin]
[1]; drugs administered alone
  anticonvulsant effects against 6 Hz seizure: dose-dependent anticonvulsant effects

## CC1(C)O[C@@H]2[C@@H](CO[C@@]3(COS(N)(=O)=O)OC(C)(C)O[C@@H]23)O1 [TPM, topiramate]
[1]; drugs administered alone
  anticonvulsant effects against 6 Hz seizure: dose-dependent anticonvulsant effects
[2]; [12]
  ED50: ~300 mg/kg
